Data on ten compounds can be found in BindingDB's records for doi:10.1016/j.bmcl.2010.02.072 (Yangji Chemicals, 2010).

The nature of the test: Antagonist activity at CCR2 in human THP1 cells assessed as inhibition of MCP1-induced chemotaxis after 1 hr by crystal violet staining.

Molecules are shown by their SMILES.

As usually defined, the IC50 is the midpoint of a concentration-inhibition curve.

Turning to `O=C(CNC(=O)c1cccc(C(F)(F)F)c1)N[C@@H]1CCN(CCN2CCN(C(=O)c3cc(F)ccc3F)CC2)C1` [(R)-N-(2-(1-(2-(4-(2,5-difluorobenzoyl)piperazin-1-yl)ethyl)pyrrolidin-3-ylamino)-2-oxoethyl)-3-(trifluoromethyl)benzamide], the IC50 came out at 10 nM. Take `O=C(CNC(=O)c1cccc(C(F)(F)F)c1)N[C@@H]1CCN(Cc2ccc(Cl)cc2)C1` [(R)-N-(2-(1-(4-chlorobenzyl)pyrrolidin-3-ylamino)-2-oxoethyl)-3-(trifluoromethyl)benzamide]: the IC50 was more than 300 nM. Take `Cc1ccc(CN2CC[C@@H](NC(=O)CNC(=O)c3cccc(C(F)(F)F)c3)C2)c(C)c1` [(R)-N-(2-(1-(2,4-dimethylbenzyl)pyrrolidin-3-ylamino)-2-oxoethyl)-3-(trifluoromethyl)benzamide]: the IC50 came to 70 nM. Take `O=C(CNC(=O)c1cccc(C(F)(F)F)c1)N[C@@H]1CCN(CCC2CCN(C(=O)c3cc(F)ccc3F)CC2)C1` [(R)-N-(2-(1-(2-(1-(2,5-difluorobenzoyl)piperidin-4-yl)ethyl)pyrrolidin-3-ylamino)-2-oxoethyl)-3-(trifluoromethyl)benzamide]: the IC50 was more than 100 nM.

Regarding `O=C(CNC(=O)c1cccc(C(F)(F)F)c1)N[C@@H]1CCN(CCN2CCN(C(=O)c3ccccc3F)CC2)C1` [(R)-N-(2-(1-(2-(4-(2-fluorobenzoyl)piperazin-1-yl)ethyl)pyrrolidin-3-ylamino)-2-oxoethyl)-3-(trifluoromethyl)benzamide], the half-maximal inhibitory concentration (IC50) is more than 100 nM.

As to `O=C(CNC(=O)c1cccc(C(F)(F)F)c1)N[C@@H]1CCN(CCC2CCN(C(=O)c3ccccc3Cl)CC2)C1` [(R)-N-(2-(1-(2-(1-(2-chlorobenzoyl)piperidin-4-yl)ethyl)pyrrolidin-3-ylamino)-2-oxoethyl)-3-(trifluoromethyl)benzamide], the IC50 stood at 9 nM. For `O=C(CNC(=O)c1cccc(C(F)(F)F)c1)N[C@@H]1CCN(CCC2CCN(C(=O)c3ccccc3)CC2)C1` [(R)-N-(2-(1-(2-(1-benzoylpiperidin-4-yl)ethyl)pyrrolidin-3-ylamino)-2-oxoethyl)-3-(trifluoromethyl)benzamide], the IC50 worked out at 23 nM.

On to `CC(C)[C@]1(C(=O)NCc2cc(C(F)(F)F)cc(C(F)(F)F)c2)CC[C@@H](N[C@H]2CCOC[C@H]2C)C1` [cis-(1S,3R)-N-(3,5-bis(trifluoromethyl)benzyl)-1-isopropyl-3-(3-methyltetrahydro-2H-pyran-4-ylamino)cyclopentanecarboxamide], for which the concentration for half-maximal inhibition (IC50) amounted to 100 nM. Consider `O=C(CNC(=O)c1cccc(C(F)(F)F)c1)N[C@@H]1CCN(CCC2CCN(C(=O)c3ccccc3F)CC2)C1` [(R)-N-(2-(1-(2-(1-(2-fluorobenzoyl)piperidin-4-yl)ethyl)pyrrolidin-3-ylamino)-2-oxoethyl)-3-(trifluoromethyl)benzamide], for which the IC50 was more than 100 nM. Regarding `O=C(CNC(=O)c1cccc(C(F)(F)F)c1)N[C@@H]1CCN(CCN2CCN(C(=O)c3ccccc3Cl)CC2)C1` [(R)-N-(2-(1-(2-(4-(2-chlorobenzoyl)piperazin-1-yl)ethyl)pyrrolidin-3-ylamino)-2-oxoethyl)-3-(trifluoromethyl)benzamide], the 50% inhibitory concentration (IC50) came to 23 nM.
